Read-outs that look alike come from different tables or passages of the source.
Columns and labels:
[1] = target: T1, ALK (Homo sapiens, UniProt Q9UM73); assay: ALK Kinase Assay (ELISA/TRF, PLC-γ substrate); assay type: biochemical; details: read-out: ALK Potency
T1 construct: host or cells: baculovirus expression system
Outline: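 PLC-γ coat 10 μg/mL in TBS; ALK 30 ng/ml added to start; 37° C, 15 min; Eu-N1 PT66 antibody detection (TRF). IC50: % inhibition vs log10 [cpd], variable-slope sigmoidal fit.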

[2] = target: T2, JAK2 (Homo sapiens, UniProt O60674); assay: Recombinant Human JAK2 Kinase Assay (TRF); assay type: biochemical; details: read-out: JAK2 Potency
T2 construct: host or cells: baculovirus expression system
Outline: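 Baculovirus-expressed JAK2 (15 ng/ml) phosphorylated a biotinylated 15-mer peptide captured on Neutravidin, in 20 mM HEPES pH 7.2, 0.2 μM ATP, 1 mM MnCl2, 0.1% BSA, 2.5% DMSO final, 20 min at room temperature. Phosphoproduct detected by time-resolved fluorescence with Eu-N1-labelled PY100 antibody.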

[3] = ALK kinase inhibition, 1 μM ATP
[4] = JAK2 kinase inhibition, 0.2 μM ATP

T2 sequence (O60674 whole entry): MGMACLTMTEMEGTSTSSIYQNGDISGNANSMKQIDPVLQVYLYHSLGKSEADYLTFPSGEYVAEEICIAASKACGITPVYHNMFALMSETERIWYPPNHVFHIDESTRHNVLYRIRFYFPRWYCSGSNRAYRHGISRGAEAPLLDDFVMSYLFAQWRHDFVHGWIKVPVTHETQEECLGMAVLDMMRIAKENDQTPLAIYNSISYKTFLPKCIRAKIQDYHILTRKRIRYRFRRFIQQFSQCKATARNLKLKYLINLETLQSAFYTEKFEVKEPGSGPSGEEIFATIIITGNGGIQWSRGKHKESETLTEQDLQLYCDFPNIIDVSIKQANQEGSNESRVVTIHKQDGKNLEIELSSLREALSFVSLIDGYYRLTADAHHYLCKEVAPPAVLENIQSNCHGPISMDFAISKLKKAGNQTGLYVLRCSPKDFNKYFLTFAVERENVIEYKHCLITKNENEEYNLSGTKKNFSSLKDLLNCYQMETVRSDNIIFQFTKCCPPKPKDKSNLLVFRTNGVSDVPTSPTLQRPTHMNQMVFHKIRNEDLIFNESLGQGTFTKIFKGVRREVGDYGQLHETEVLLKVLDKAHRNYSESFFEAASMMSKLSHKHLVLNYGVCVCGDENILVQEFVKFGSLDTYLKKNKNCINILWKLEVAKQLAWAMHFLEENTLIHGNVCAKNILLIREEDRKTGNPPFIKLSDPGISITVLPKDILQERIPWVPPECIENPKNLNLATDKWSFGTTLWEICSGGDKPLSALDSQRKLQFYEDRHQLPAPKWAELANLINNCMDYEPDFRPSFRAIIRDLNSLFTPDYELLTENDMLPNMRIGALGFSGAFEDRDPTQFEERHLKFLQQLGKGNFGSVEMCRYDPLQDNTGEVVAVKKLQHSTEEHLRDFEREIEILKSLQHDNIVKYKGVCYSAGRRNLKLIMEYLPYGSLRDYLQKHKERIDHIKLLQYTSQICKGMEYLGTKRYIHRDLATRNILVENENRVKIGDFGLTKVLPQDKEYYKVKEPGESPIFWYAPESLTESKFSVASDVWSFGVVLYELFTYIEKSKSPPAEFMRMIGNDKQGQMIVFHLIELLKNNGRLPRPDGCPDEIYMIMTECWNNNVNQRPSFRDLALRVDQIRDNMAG
T1 sequence (Q9UM73 19-1620): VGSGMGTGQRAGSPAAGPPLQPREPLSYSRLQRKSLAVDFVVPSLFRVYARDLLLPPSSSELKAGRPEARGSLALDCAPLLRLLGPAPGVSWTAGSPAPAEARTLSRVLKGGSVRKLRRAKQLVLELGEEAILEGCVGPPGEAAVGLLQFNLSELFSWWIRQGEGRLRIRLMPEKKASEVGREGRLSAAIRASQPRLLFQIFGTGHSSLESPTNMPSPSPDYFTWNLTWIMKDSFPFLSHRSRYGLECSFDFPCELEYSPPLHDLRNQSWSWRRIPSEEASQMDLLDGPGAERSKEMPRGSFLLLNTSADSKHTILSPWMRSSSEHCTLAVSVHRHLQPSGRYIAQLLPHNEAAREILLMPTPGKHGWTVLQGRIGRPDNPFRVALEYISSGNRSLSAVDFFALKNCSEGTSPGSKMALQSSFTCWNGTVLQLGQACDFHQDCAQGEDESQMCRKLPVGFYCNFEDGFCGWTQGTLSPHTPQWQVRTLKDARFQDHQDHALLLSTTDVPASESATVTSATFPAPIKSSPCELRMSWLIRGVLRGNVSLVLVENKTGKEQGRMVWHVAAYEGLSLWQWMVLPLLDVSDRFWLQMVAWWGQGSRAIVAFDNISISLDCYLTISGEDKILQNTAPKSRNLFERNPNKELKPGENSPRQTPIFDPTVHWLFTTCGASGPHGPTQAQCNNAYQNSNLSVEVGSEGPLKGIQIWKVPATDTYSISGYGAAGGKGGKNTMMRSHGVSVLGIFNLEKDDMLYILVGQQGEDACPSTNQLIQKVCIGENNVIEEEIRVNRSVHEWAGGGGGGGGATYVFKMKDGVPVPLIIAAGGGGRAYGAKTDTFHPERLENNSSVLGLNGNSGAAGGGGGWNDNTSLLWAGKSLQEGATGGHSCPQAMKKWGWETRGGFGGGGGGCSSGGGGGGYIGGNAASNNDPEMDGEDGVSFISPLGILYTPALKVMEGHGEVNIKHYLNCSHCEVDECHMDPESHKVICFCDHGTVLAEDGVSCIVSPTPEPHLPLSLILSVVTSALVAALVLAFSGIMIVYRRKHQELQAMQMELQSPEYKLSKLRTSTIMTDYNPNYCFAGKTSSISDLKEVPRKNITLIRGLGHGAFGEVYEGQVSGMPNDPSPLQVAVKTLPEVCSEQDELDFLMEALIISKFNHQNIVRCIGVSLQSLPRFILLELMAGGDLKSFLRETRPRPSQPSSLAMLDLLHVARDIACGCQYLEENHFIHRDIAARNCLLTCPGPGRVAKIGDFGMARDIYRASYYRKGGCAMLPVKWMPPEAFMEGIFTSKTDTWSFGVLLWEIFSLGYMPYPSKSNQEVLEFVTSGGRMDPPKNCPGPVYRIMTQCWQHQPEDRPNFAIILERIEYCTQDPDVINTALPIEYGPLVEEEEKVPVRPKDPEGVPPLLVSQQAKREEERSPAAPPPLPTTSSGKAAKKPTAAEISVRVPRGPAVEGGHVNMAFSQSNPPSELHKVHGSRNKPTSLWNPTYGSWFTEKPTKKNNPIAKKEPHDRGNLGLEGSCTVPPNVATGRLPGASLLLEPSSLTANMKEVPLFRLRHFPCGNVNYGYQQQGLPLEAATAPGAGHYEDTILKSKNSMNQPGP

Row | SMILES | IC50 [1, 3] [nM] | IC50 [2, 4] [nM] | IC50 ([1]; ALK Kinase Inhibition) [nM] | IC50 ([2]; JAK2 Kinase Inhibition) [nM]
1 | COc1cc(Nc2ncc3ccc(-c4cccc(S(C)(=O)=O)c4)n3n2)cc(OC)c1OC [Example 185, [7-(3-Methanesulfonyl-phenyl)-pyrrolo[2,1-f][1,2,4]triazin-2-yl]-(3,4,5-trimethoxy-phenyl)-amine] |  |  | 100 to 1000 | < 100
2 | CS(=O)(=O)Nc1ccccc1-c1ccc2cnc(Nc3cccc(OCCN4CCOCC4)c3)nn12 [Example 1002, N-(2-{2-[3-(2-Morpholin-4-yl-ethoxy)-phenylamino]-pyrrolo[2,1-f][1,2,4]triazin-7-yl}-phenyl)-methanesulfonamide] | 1000 to 10000 | < 100 |  | 
3 | N#CCCc1cccc(-c2ccc3cnc(Nc4ccc(N5CCOCC5)cc4)nn23)c1 [Example 1145, 3-{3-[2-(4-Morpholin-4-yl-phenylamino)-pyrrolo[2,1-f][1,2,4]triazin-7-yl]-phenyl}-propionitrile] | 100 to 1000 | < 100 |  | 
4 | CN1CCN(C(=O)C2CCCN(c3ccc(Nc4ncc5ccc(-c6ccccc6N(C)S(C)(=O)=O)n5n4)cc3)C2)CC1 (centres unmarked) [Example 447, N-Methyl-N-[2-(2-{4-[3-(4-methyl-piperazine-1-carbonyl)-piperidin-1-yl]-phenylamino}-pyrrolo[2,1-f][1,2,4]triazin-7-yl)-phenyl]-methanesulfonamide] |  |  | < 100 | < 100
5 | CN1CCN(C)C(c2cccc(Nc3ncc4ccc(-c5cccc(S(=O)(=O)NC(C)(C)C)c5)n4n3)c2)C1=O (centres unmarked) [Example 1077, N-tert-Butyl-3-{2-[3-(1,4-dimethyl-3-oxo-piperazin-2-yl)-phenylamino]-pyrrolo[2,1-f][1,2,4]triazin-7-yl}-benzenesulfonamide] | 1000 to 10000 | < 100 |  | 
6 | Clc1cccc(-c2ccc3cnc(Nc4cccc(N5CCOCC5)c4)nn23)c1 [Example 148, [7-(3-Chloro-phenyl)-pyrrolo[2,1-f][1,2,4]triazin-2-yl]-(3-morpholin-4-yl-phenyl)-amine] |  |  | 1000 to 10000 | < 100
7 | CC(C)(C)NS(=O)(=O)c1cccc(-c2ccc3cnc(Nc4cccc(N5CCCC5=O)c4)nn23)c1 [Example 1383, N-tert-Butyl-3-{2-[3-(2-oxo-pyrrolidin-1-yl)-phenylamino]-pyrrolo[2,1-f][1,2,4]triazin-7-yl}-benzenesulfonamide] |  |  | 1000 to 10000 | < 100
8 | CN1CCN(c2ccc(Nc3ncc4ccc(Sc5ccncc5)n4n3)cc2)CC1 [Example 1117, [4-(4-Methyl-piperazin-1-yl)-phenyl]-[7-(pyridin-4-ylsulfanyl)-pyrrolo[2,1-f][1,2,4]triazin-2-yl]-amine] | 1000 to 10000 | < 100 |  | 
9 | COc1cc(N2CCC[C@H](CN3CCN(C)CC3)C2)ccc1Nc1ncc2ccc(-c3ccccc3N(C)S(C)(=O)=O)n2n1 [Example 465, N-[2-(2-{2-Methoxy-4-[(R)-3-(4-methyl-piperazin-1-ylmethyl)-piperidin-1-yl]-phenylamino}-pyrrolo[2,1-f][1,2,4]triazin-7-yl)-phenyl]-N-methyl-methanesulfonamide] |  |  | < 100 | 100 to 1000

Other lines, results leading:

Row | IC50 [1, 3] [nM] | IC50 [2, 4] [nM] | IC50 ([1]; ALK Kinase Inhibition) [nM] | IC50 ([2]; JAK2 Kinase Inhibition) [nM] | SMILES
10 | 100 to 1000 | 1000 to 10000 |  |  | COc1cc(C(=O)N2CCN(C)CC2)ccc1Nc1ncc2ccc(-c3ccccc3N(C)S(C)(=O)=O)n2n1 [Example 490, N-(2-{2-[2-Methoxy-4-(4-methyl-piperazine-1-carbonyl)-phenylamino]-pyrrolo[2,1-f][1,2,4]triazin-7-yl}-phenyl)-N-methyl-methanesulfonamide]
11 | < 100 | < 100 |  |  | COCc1ccccc1-c1ccc2cnc(Nc3ccc(N4CCC(N5CCN(C)CC5)CC4)cc3OC)nn12 [Example 538, [7-(2-Methoxymethyl-phenyl)-pyrrolo[2,1-f][1,2,4]triazin-2-yl]-{2-methoxy-4-[4-(4-methyl-piperazin-1-yl)-piperidin-1-yl]-phenyl}-amine]
12 |  |  | 100 to 1000 | < 100 | COc1ccccc1-c1ccc2cnc(Nc3ccc(C(=O)N4CCN(C)CC4)cc3)nn12 [Example 318, {4-[7-(2-Methoxy-phenyl)-pyrrolo[2,1-f][1,2,4]triazin-2-ylamino]-phenyl}-(4-methyl-piperazin-1-yl)-methanone]
13 | 100 to 1000 | < 100 |  |  | COc1ccccc1-c1ccc2cnc(Nc3ccc4c(c3)NC(=O)C4(C)C)nn12 [Example 656, 6-[7-(2-Methoxy-phenyl)-pyrrolo[2,1-f][1,2,4]triazin-2-ylamino]-3,3-dimethyl-1,3-dihydro-indol-2-one]
14 |  |  | < 100 | < 100 | COCCN1CCc2ccc(Nc3ncc4ccc(-c5ccccc5)n4n3)cc2CC1 [Example 9, [3-(2-Methoxy-ethyl)-2,3,4,5-tetrahydro-1H-benzo[d]azepin-7-yl]-(7-phenyl-pyrrolo[2,1-f][1,2,4]triazin-2-yl)-amine]
15 | < 100 | 100 to 1000 |  |  | COc1cc(C2=CCNCC2)ccc1Nc1ncc2ccc(-c3ccccc3N(C)S(C)(=O)=O)n2n1 [Example 742, N-(2-{2-[2-Methoxy-4-(1,2,3,6-tetrahydro-pyridin-4-yl)-phenylamino]-pyrrolo[2,1-f][1,2,4]triazin-7-yl}-phenyl)-N-methyl-methanesulfonamide]
16 |  |  | 100 to 1000 | < 100 | CN1CCN(C(=O)c2ccc(Nc3ncc4ccc(-c5cccnc5)n4n3)cc2)CC1 [Example 321, (4-Methyl-piperazin-1-yl)-[4-(7-pyridin-3-yl-pyrrolo[2,1-f][1,2,4]triazin-2-ylamino)-phenyl]-methanone]
17 |  |  | 100 to 1000 | < 100 | COc1cc(N2CCN(C)CC2)ccc1Nc1ncc2ccc(-c3ccc(S(C)(=O)=O)cc3)n2n1 [Example 62, [7-(4-Methanesulfonyl-phenyl)-pyrrolo[2,1-f][1,2,4]triazin-2-yl]-[2-methoxy-4-(4-methyl-piperazin-1-yl)-phenyl]-amine]
18 |  |  | > 10000 | 100 to 1000 | c1ccc(Nc2ncc3cc4ccccc4n3n2)cc1 [Example 270, Phenyl-[1,2,4]triazino[1,6-a]indol-2-yl-amine]
19 | < 100 | 100 to 1000 |  |  | COc1cc(C2CCN(CC(N)=O)CC2)ccc1Nc1ncc2ccc(-c3cccc(S(=O)(=O)NC4CC4)c3)n2n1 [Example 697, 2-(4-{4-[7-(3-Cyclopropylsulfamoyl-phenyl)-pyrrolo[2,1-f][1,2,4]triazin-2-ylamino]-3-methoxy-phenyl}-piperidin-1-yl)-acetamide]
20 | > 10000 | < 100 |  |  | CN1CCN(C)C(c2ccc(Nc3ncc4ccc(-c5cccc(S(=O)(=O)N6CCOCC6)c5)n4n3)cc2)C1=O (centres unmarked) [Example 1075, 1,4-Dimethyl-3-(4-{7-[3-(morpholine-4-sulfonyl)-phenyl]-pyrrolo[2,1-f][1,2,4]triazin-2-ylamino}-phenyl)-piperazin-2-one]
21 | 100 to 1000 | < 100 |  |  | c1cc2c(c(-c3ccc4cnc(Nc5cnn(C6CCNCC6)c5)nn34)c1)OCC2 [Example 715, [7-(2,3-Dihydrobenzofuran-7-yl)pyrrolo[2,1-f][1,2,4]triazin-2-yl]-(1-piperidin-4-yl-1H-pyrazol-4-yl)amine]
22 |  |  | 100 to 1000 | < 100 | CC(C)(C)NS(=O)(=O)c1cccc(-c2ccc3cnc(Nc4ccc(CN5CCCC5)cc4)nn23)c1 [Example 1429, N-tert-Butyl-3-[2-(4-pyrrolidin-1-ylmethyl-phenylamino)-pyrrolo[2,1-f][1,2,4]triazin-7-yl]-benzenesulfonamide]

— patent publication US8471005B2 (Cephalon, Inc., priority 2008, dated 2013)
